Consider 24 compounds from patent US4845123A, “Reduction in vivo of the inappropriate levels of endogenous and environmental-derived compounds by sustained-release inhibitors of β- g” (priority 1985, dated 1989).

In series [1] the test system is 60 kd oncofetal protein. Conditions: rat, in vivo; for Plasma concentration of the 60 kd protein at 21 days post-treatment with PAH: ip.
In series [2] the test system is 60 kd oncofetal protein. The series can be described thus: effect of β-glucuronidase inhibitors on carcinogen induction of the 60 kd factor in plasma (cell-free RNA transport assay). In kind it is in vivo, rat. Conditions: rat, in vivo.
The conditions of series [3]: rat, in vivo, iv, cited from earlier work.
The subject of series [4] is bladder tumor. Conditions: rat, in vivo; cited from earlier work.
In series [5] the test system is bladder tumors. The settings on record: human, in vivo; cited from earlier work.
Series [6] relates to bladder cancer. Conditions: dog, in vivo; cited from earlier work.
Series [7] deals with T1, serum β-glucuronidase (Rattus norvegicus, UniProt P06760).
T1 sequence (P06760 23-648): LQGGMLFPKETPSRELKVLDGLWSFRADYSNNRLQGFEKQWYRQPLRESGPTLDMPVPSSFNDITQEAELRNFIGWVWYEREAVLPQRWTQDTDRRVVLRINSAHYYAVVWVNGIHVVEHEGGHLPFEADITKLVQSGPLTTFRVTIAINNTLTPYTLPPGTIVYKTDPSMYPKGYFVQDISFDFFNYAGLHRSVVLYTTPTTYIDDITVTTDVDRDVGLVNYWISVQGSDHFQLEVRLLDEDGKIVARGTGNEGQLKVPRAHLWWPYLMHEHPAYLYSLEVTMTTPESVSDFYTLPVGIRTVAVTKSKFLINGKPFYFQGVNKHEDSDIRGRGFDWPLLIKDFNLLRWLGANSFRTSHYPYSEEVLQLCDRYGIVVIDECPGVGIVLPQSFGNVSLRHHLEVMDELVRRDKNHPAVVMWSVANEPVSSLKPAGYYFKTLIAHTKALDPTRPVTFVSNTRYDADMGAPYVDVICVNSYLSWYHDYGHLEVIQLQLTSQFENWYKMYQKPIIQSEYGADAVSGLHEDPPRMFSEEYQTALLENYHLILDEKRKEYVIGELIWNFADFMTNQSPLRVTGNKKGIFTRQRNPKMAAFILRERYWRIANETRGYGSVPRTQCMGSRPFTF
The series can be described thus: in vivo. Format: in vivo. The settings on record: rat, in vivo. Here is the method: GL was synthesized and microencapsulated to give sustained-release GL (EGL), by an established procedure used to microencapsulate ascorbic acid, as reported in Samejima, M. et al., Chem. Pharm. Bull., (Tokyo) 1982, 30:2894-2899. In this procedure, the GL as a fine powder is added to a stirred mixture of cyclohexane, polyisobutylene as coacervation-inducing agent and ethylcellulose as wall-forming material. The addition of GL is at 78° C., then phase separation is induced by lowering the temperature first to 40° C., then to 25° C. The microcapsules, which have thick walls, are washed with cyclohexane and dried. […] DAGDL, calcium D-glucarate (CGT), and potassium hydrogen D-glucarate (PGT) were synthesized. For comparison of efficacy of the inhibitors, 1,5 mmoles/kg (GL, EGL or DAGDL) or 4.5 mmoles/kg (CGT or PGT) of the inhibitor in 1.0 ml of sesame oil or vehicle only (controls) was administered to rats by stomach tube at zero time. Blood samples were obtained from different rats by cardiac puncture under ether anesthesia. The serum was prepared and assayed for β-glucuronidase activity using a commerical diagnostic kit sold by Sigma Chemical Company, St. Louis, MO. The assay is based on the hydrolysis of phenolphthalein-glucuronide and quantitation of phenolphthalein in alkaline medium at […]. For tests of anti-carcinogencity, the inhibitors were administered by stomach tube in 1.0 ml of sesame oil 30 minutes before and again at 2.5 hours after the carcinogen, for DAGDL, or 3 hours and 30 minutes before the carcinogen, for EGL, CGT, and PGT. The controls received sesame oil only by stomach tube.
At the time periods indicated above blood samples were obtained from rats under ether aneathesia by cardiac puncture, the serum was then prepared and assayed for β-glucuronidase activity using a commercial diagnostic kit sold by Sigma Chem. Co., St. Louis, MO.
For the inhibition of the initiation stage, CGT was given by gavage in two doses (4.5 mmoles/kg/dose) at 3 hours and again at 0.5 hours before carcinogen administration. […] The concentrations of CGT were incorporated into the powdered chow diet. The blood samples were obtained 10 days after the initiation of the CGT feeding.
DAGDL or GL (1.5 mmol/kg) in 1.0 ml of sesame oil, or vehicle only (controls) was administered to rats by stomach tube at zero time. […] The serum was prepared and assayed for β-glucuronidase activity using a commercial diagnostic kit sold by Sigma Chemical Company, St. Louis, MO. The assay is based on the hydrolysis of phenolphthalein-glucuronide and quantitation of phenolphtalein in alkaline medium at 550 nm.

The conditions of series [8]: in vivo; cited from earlier work.
For series [9], the system named is β-glucuronidase. The settings on record: cited from earlier work.
The conditions of series [10]: equilibrated aqueous solution; cited from earlier work.

The structures appear in SMILES notation. “Also recorded” adds a separate entry of the source.

As for `CNNC` [1,2-Dimethylhydrazine, 1,2-dimethylhydrazine], the “Treatment -I: total concentration of 60 kd factor induced by the carcinogen” value (“Treatment -I: total concentration” below) in series [1] is on record as 5.40. Turning to `O=[N+]([O-])c1ccc2ccc3cccc4ccc1c2c34` [1-Nitropyrene, reference compound], the “overall inhibition of PAH-mediated carcinogenesis, as inhibition of 60 kd oncofetal protein induction” value (shortened to “overall inhibition”) in series [2] is given as 50%. The “Plasma concentration of the 60 kd protein at 21 days post-treatment with PAH” value (from here on “Plasma concentration”) in series [1] turned out to be 5.30 units. Regarding `CC(=O)Nc1ccc2c(c1)Cc1ccccc1-2` [2-Acetyalaminofluorine, 2-acetylaminofluorene], the “Treatment -I: total concentration” value in series [1] was 5.11.

`Cc1c2ccccc2c(C)c2c1ccc1ccc(F)cc12` [2-Fluoro-7,12-dimethylbenz[a]anthracene]: the “Plasma concentration” value in series [1] is given as 0.0.

On to `Nc1ccc2ccccc2c1` [2-Naphthylamine, 2-naphthylamine], for which, in series [1], the “Treatment -I: total concentration” value was 3.29. In the case of `Cc1ccc2cc3c(ccc4ccccc43)c3c2c1CC3` [3-Methylcholanthrene, 3-methyl-1,2-dihydrobenz[j]aceanthrylene], the “overall inhibition” value in series [2] amounted to 50%. Also, in series [1], the “Treatment -I: total concentration” value was 5.62 and the “Plasma concentration” value amounted to 6.82.

In the case of `Cc1c2ccccc2c(C)c2c1ccc1ccccc12` [7,12-Dimethylbenz[a]anthracene, 7,12-dimethylbenz[a]anthracene], the “overall inhibition” value in series [2] is reported as 75%. Further, in series [1], the “Plasma concentration” value is on record as 6.42. For `COc1cc2c(c3oc(=O)c4c(c13)CCC4=O)[C@@H]1C=CO[C@@H]1O2` [Aflatoxin B1, aflatoxin B1], in series [1], the “Treatment -I: total concentration” value came to 4.37. The same measure, in the same setting: next, `COc1cc2c(c3oc(=O)c4c(c13)CCOC4=O)[C@@H]1CCO[C@@H]1O2` [Aflatoxin G2, aflatoxin G2]: 3.80. Turning to `c1ccc2cc3ccccc3cc2c1` [Anthracene], in series [1], the “Plasma concentration” value was determined as 0.0. The same measure, in the same setting: with `c1ccc2cc3c(ccc4ccccc43)cc2c1` [Benz[a]anthracene] the figure was 4.92. On to `c1ccc2c(c1)cc1ccc3cccc4ccc2c1c34` [Benzo[a]pyrene], for which, in series [2], the “overall inhibition” value stood at 75%. In series [1], the “Treatment -I: total concentration” value was 7.73 and the “Plasma concentration” value was determined as 7.73. In addition, the “dose excreted in bile” value in [3] (6 h) is reported as around 60%. Besides, in [3], the “biliary metabolites being glucuronides” value was 40%.

For the compound `c1ccc2c(c1)c1cccc3ccc4cccc2c4c31` [Benzo[e]pyrene], the “Plasma concentration” value in series [1] came to 3.37.

Regarding `c1ccc2c(c1)Cc1ccccc1-2` [Fluorene], in series [1], the “Plasma concentration” value was 0.0 units. For the compound `O=C(O)[C@@H](O)[C@H]1OC(=O)[C@H](O)[C@H]1O` [GL, D-glucaro-1,4-lactone, reference compound], the “effect on 2-acetylaminofluorene carcinogenesis” value in [4] is listed as “unsuccessful”. In series [5], the “clinical effect in prevention of bladder tumors” value is on record as “failed to show any clear beneficial effects”. Besides, the “prevention of bladder cancer induced with 2-naphthylamine” value in [6] was “without any success”. For the same compound, in [7], the “depression of serum β-glucuronidase” value is reported as “approximately 50%”, the “reversibility of inhibition by prolonged dialysis” value is reported as “could be reversed” and the “time-course of serum β-glucuronidase inhibition” value is “only a transient inhibition; also recorded: transient nature of the inhibition”. Moreover, in [8], the “administered compound excreted unchanged in urine” value is reported as “less than 50%”; the “rate of metabolism and excretion” value is reported as “rapidly metabolized”. The “inhibition of β-glucuronidase in vitro” value in series [9] is “potent inhibitor”. In the case of `CCCCN(CCCC)N=O` [N--Nitrosodibutylamine, N-nitroso-N,N-dibutylamine], the “Treatment -I: total concentration” value in series [1] is on record as 5.44. On the same count and under the same terms, with `CCN(CC)N=O` [N--Nitrosodiethylamine, N-nitroso-N, N-diethylamine] the figure was 4.21; with `CN(C)N=O` [N--Nitrosodimethylamine, N-nitroso-N,N-dimethylamine], 3.40. Same read-out and setting: next, `CCN(N=O)C(N)=O` [N--Nitrosoethylurea, N-nitroso-N-ethylurea]: 4.50.

Consider `CN(N=O)C(N)=O` [N--Nitrosomethylurea, N-nitroso-N-methylurea], for which, in series [1], the “60 kd factor in plasma, MNU without inhibitor” value is recorded as 4.6 and the “Treatment -I: total concentration” value was found to be 4.69. With `O=C(O)[C@@H](O)[C@@H](O)[C@H](O)[C@@H](O)C(=O)[O-].[K+]` [PGT, potassium hydrogen D-glucarate], in series [2], the “Percent Inhibition of the induction of the 60 kd factor” value is on record as 65% and the “Treatment +I: total concentration of 60 kd factor” value stood at 2.25. The “time-course of serum β-glucuronidase inhibition” value in [7] is given as “prolonged inhibition”.

In the case of `c1cc2ccc3cccc4ccc(c1)c2c34` [Pyrene], in series [1], the “Plasma concentration” value is listed as 0.0.

On to `C=CCc1ccc2c(c1)OCO2` [Safrole, safrole], for which the “Treatment -I: total concentration” value in series [1] is 5.90. `O=C(O)[C@@H](O)[C@@H](O)[C@H](O)[C@@H](O)C(=O)O` [glucarate]: the “fraction of glucarate converted to GL” value in [10] is “approximately one-third”.
